From patent US20240239861A1, “GLUCAGON-RECEPTOR SELECTIVE POLYPEPTIDES AND METHODS OF USE THEREOF” (i2O Therapeutics, Inc., priority 2016, published 2024)
“Also recorded” adds a separate entry of the source. Where a SMILES comes first, the peptide text is derived from it. [ ]: non-standard residue; d: D form. Aib = CC(C)(N)C(=O)O

Legend:
[1] = target: human GCGR (Homo sapiens, UniProt P47871); experiment: Peptide-receptor mediated cAMP accumulation (LANCE Ultra cAMP) in CHO-K1 cells transfected with human GCGR; format: cell-based
Sequence of human GCGR (P47871 26-477): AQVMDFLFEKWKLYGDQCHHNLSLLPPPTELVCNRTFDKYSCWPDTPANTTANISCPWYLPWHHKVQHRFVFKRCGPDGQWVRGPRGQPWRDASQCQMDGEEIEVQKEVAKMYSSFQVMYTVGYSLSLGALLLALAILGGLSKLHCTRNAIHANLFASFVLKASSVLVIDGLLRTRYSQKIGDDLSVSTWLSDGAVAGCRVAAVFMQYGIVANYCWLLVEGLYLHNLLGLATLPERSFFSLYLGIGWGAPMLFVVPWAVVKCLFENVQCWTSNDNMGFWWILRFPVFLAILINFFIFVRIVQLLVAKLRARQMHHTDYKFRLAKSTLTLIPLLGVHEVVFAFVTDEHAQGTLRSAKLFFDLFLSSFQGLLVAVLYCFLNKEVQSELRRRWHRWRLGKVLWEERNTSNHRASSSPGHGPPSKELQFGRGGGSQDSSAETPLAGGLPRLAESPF

[2] = target: human GLP-1R (Homo sapiens, UniProt P43220); experiment: Peptide-receptor mediated cAMP accumulation (LANCE Ultra cAMP) in CHO-K1 cells transfected with human GLP-1R; format: cell-based
Sequence of human GLP-1R (P43220 24-463): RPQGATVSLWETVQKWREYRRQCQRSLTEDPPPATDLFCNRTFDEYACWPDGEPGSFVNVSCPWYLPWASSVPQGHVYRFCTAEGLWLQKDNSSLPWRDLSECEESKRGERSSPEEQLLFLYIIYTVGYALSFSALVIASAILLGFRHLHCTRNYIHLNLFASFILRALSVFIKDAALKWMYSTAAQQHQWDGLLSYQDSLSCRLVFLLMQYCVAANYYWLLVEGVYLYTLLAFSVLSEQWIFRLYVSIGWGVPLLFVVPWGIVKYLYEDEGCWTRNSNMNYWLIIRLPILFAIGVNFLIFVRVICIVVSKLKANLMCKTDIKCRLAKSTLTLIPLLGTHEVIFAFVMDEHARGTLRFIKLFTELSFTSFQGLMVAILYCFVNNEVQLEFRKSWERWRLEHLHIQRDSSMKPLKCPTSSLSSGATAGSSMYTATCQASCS

[3] = target: T1, hGIPR (Homo sapiens, UniProt P48546); experiment: Human in vitro potency (pEC50) at hGIPR; format: cell-based
T1 sequence (P48546 22-466): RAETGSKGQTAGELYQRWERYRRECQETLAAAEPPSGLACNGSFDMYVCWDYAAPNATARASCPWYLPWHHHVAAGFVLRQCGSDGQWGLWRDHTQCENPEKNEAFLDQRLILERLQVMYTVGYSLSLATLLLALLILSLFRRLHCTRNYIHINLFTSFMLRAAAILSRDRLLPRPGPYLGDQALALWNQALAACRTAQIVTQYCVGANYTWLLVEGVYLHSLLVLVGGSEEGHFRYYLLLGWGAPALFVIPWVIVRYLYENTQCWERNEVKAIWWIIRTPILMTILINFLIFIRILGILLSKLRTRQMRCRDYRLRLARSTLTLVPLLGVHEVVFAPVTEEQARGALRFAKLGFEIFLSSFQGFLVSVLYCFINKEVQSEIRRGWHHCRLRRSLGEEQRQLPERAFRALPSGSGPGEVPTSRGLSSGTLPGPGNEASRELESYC

[4] = Solubility in water or saline at room temperature, visual inspection; format: physicochemical
Source text: Samples were visually inspected for clarity of the sample, any appearance of turbidity or haziness.

[5] = Stability in water or saline at 37° C. and room temperature, 30 days, LC/MS and HPLC purity; format: physicochemical
Source text: Samples were withdrawn at a regular interval for 30 days and analyzed by LC/MS and HPLC for determination of purity and mass of the degradation product.

[6] = Steady state plasma concentrations of glucagon analogs given subcutaneously by osmotic minipump; format: in vivo, rat
[7] = Body weight change in diet-induced obese rats over 27 days, Compound A1 with or without exenatide; format: in vivo, rat
[8] = Clearance following intravenous infusion, acylated peptides (1-hour infusion, 0.033 mg/kg); conditions: rat, in vivo, Table 8, male rats, unit inferred
[9] = 3-hour subcutaneous infusion pharmacokinetics; conditions: male, rat, in vivo
Method: Peptides were formulated in sterile saline and administered as a 3-hour subcutaneous infusion to non-fasted male Wistar Han or Sprague-Dawley rats (n=3 per group) at a final dose of 0.3 or 0.1 mg/kg via a cannula placed into the subcutaneous space between the scapulae. […] Plasma was prepared by centrifugation and stored at −80° C. until analysis.
(§1) Protein Precipitation: All 96-well plates were coated with a blocking agent to mitigate non-specific binding of peptides. Plasma samples (75 uL) were added to a 96-well plate containing 200 uL of 2:1 ethanol:acetonitrile containing 0.1% TFA and mixed well via aspiration. Plates were capped, vortex-mixed and centrifuged. Supernatants (215 uL) were transferred to a clean 96-well plate, evaporated to dryness under nitrogen flow and then reconstituted in 75 μL of 20% acetonitrile in water containing 0.10% formic acid.
Solid-Phase Extraction: Samples were diluted 3-fold with 5% NH4OH (aq) and loaded onto an Oasis MAX microElution plate (Waters Corp, Milford, MA) that had been pre-conditioned with 200 uL each of methanol and 5% NH4OH (aq). The plate was washed with 200 uL 5% NH4OH (aq), followed by 200 uL 20% acetonitrile in water. […]
All calibration standards were prepared in control rat plasma containing K2EDTA and protease inhibitor cocktail. […] Peptides were quantified my monitoring one or more product ions produced from a multiply charged parent ion.

[10] = Clearance at intravenous infusion rate of 10 mcg/kg/hr; conditions: for clearance: rat, in vivo, 10 mcg/kg/hr
[11] = 3-hour intravenous infusion pharmacokinetics, peptide clearance (CL); conditions: male, rat, in vivo
Method: Peptides were formulated in sterile saline and administered as a 3-hour intravenous infusion to non-fasted male Wistar Han or Sprague-Dawley rats (n=3 per group) via jugular vein cannula at a final dose of 0.3 or 0.1 mg/kg. […] Plasma was prepared by centrifugation and stored at −80° C. until analysis.
as §1
Solid-Phase Extraction: Samples were diluted 3-fold with 5% NH4OH (aq) and loaded onto an Oasis MAX microElution plate (Waters Corp, Milford, MA) that had been pre-conditioned with 200 uL each of methanol and 5% NH4OH (aq). The plate was washed with 200 uL 5% NH4OH (aq), followed by 200 uL 20% acetonitrile in water. […] Samples were reconstituted in 80 uL 0.1% formic acid in water.
All calibration standards were prepared in control rat plasma containing K2EDTA and protease inhibitor cocktail. […] Samples were injected onto a 2.1×50 mm reverse phase C18 analytical column, typically a Waters ACQUITY UPLC™ HSS T3, 1.8 μm (Waters Corporation, Milford, MA) or similar. […] Typical flow rates were 600 L/min. The column temperature was held constant at 40 or 45° C. Peptides were quantified my monitoring one or more product ions produced from a multiply charged parent ion.

[12] = Body weight change in DIO Long Evans rats after 13 days continuous dosing by osmotic pump; conditions: for weight loss compared to vehicle control after 13 days: DIO LE rats, single agent; for ED50 of weight loss: DIO rats
Method: Rats were 15-17 weeks old at the start of the study. The rats were housed 1 per cage and given ad libitum access to high fat diet (Harlan TD.95217, 4.3 kcal/g) and water, maintained on a 12 hr light/dark cycle from 5:00 AM to 5:00 PM at 21° C. and 50% relative humidity and allowed to acclimate for at least 10 days prior to the surgeries. Baseline fat mass and non-fat mass measurements were taken 3 days before the start of peptide infusion using a QMR instrument (Echo Medical Systems, Houston, TX). Body weight measurements were taken 2 times/week starting three days before the surgery. Rats were randomized according to their percent body fat mass and/or body weight into the various treatment groups (n=4-6 rats/group). […] On the day of surgery, rats were anesthetized under isoflurane and the dorsal skin surface was shaved and cleansed. Rats were injected SC with Flunexin (2.5 mg/kg). A 1-2 cm surgical incision was made between the scapulae. Using blunt dissection, a 2-3 cm subcutaneous tunnel was created into which the sterile, filled, mini-osmotic pump was introduced. The skin opening was closed with a skin staple. Each rat was implanted with either one or two osmotic pumps containing vehicle or peptide according to their treatment group. All the data are presented as mean±SEM. The data were analyzed in Excel and/or Prism (GraphPad Software, Inc., La Jolla, CA) using one-way ANOVA to compare each group to the appropriate control group.

With CC(C)C[C@H](NC(=O)[C@H](Cc1ccc(O)cc1)NC(=O)[C@H](CCCCN)NC(=O)[C@H](CO)NC(=O)[C@H](Cc1ccc(O)cc1)NC(=O)[C@H](CC(=O)O)NC(=O)[C@H](CO)NC(=O)[C@@H](NC(=O)[C@H](Cc1ccccc1)NC(=O)[C@@H](NC(=O)CNC(=O)[C@H](Cc1c[nH]cn1)NC(=O)[C@H](CO)NC(=O)[C@@H](N)Cc1ccc(O)cc1)[C@@H](C)O)[C@@H](C)O)C(=O)N[C@@H](CC(=O)O)C(=O)NC(C)(C)C(=O)N[C@@H](CCCCN)C(=O)N[C@@H](Cc1ccc(O)cc1)C(=O)N[C@@H](C)C(=O)N[C@@H](CCC(N)=O)C(=O)N[C@@H](CCC(=O)O)C(=O)N[C@@H](Cc1ccccc1)C(=O)N[C@H](C(=O)NC(C)(C)C(=O)N[C@@H](Cc1c[nH]c2ccccc12)C(=O)N[C@@H](CC(C)C)C(=O)N[C@@H](CCC(=O)O)C(=O)N[C@@H](CC(=O)O)C(=O)N[C@@H](CCC(=O)O)C(=O)N1CCC[C@H]1C(=O)N[C@@H](CO)C(=O)N[C@@H](CO)C(=O)NCC(=O)N[C@@H](C)C(=O)N1CCC[C@H]1C(=O)N1CCC[C@H]1C(=O)N1CCC[C@H]1C(=O)N[C@@H](CO)C(=O)O)C(C)C [Compound A1] (H-YSHGTFTSDYSKYLD[Aib]KYAQEFV[Aib]WLEDEPSSGAPPPS-OH; N-terminus assumed) the EC50 [1] was 0.0251 nM, the “activation profile at the human glucagon receptor (GCGR)” value ([1]; FIG. 1A) was “nearly equipotent on GCGR” and the “activation profile at the human GLP-1 receptor (GLP-1R)” value ([2]; FIG. 1B) was “inactive on GLP-1R”. The EC50 ([2]; GLP-1R pEC50, Table 7, GLP-1R) was > 1 µM, the EC50 ([2]; Human in vitro Potency (pEC50) hGLP-1R, Table 6) was 6.31 µM and the EC50 ([2]; hGLP1 pEC50 (cAMP mean (n = 3): 11 point curve starting at 1 nM, Table 3)) was 6.31 µM. For the same molecule, the EC50 ([2]; hGLP1 pEC50 (cAMP) mean (n = 9): 11 point curve starting at 500 uM, Table 2A) was 6.31 µM, the EC50 [3] was > 10 µM and the solubility ([4]; Table 3, room temperature, read-out: Solubility in water) was > 200 mg/mL. For the same molecule, the “Physiochemical Properties Solubility” value ([4]; Table 6, unit not given) was >200, the “Stability 1 mg/ml in water at 37 degC” value ([5]; Table 3, % printed only in cells of A1-A6) was >71% and the “Physiochemical Properties Stability” value ([5]; Table 6) was >95%. For the same molecule, the mode of clearance ([6]; FIG. 6, steady state plasma concentration vs inulin/GFR) was “consistent with being via glomerular filtration; also recorded: cleared mainly by glomerular filtration”, the subcutaneous bioavailability ([6]; sc osmotic minipump, rat) was “high” and the “interaction of the combination with exenatide on weight loss” value ([7]; 27 days, Compound A1 24 and 50 mcg/kg/day with exenatide 10 mcg/kg/day) was “supra-additive (synergistic) effect”. The “maximal weight loss response, combination with exenatide” value ([7]; 27 days, Compound A1 with exenatide 10 mcg/kg/day) was ~47%, the “increase in body weight over 27 days” value ([7]; DIO rats, Compound A1 alone 7.5 mcg/kg/day) was ~4% and the “increase in body weight over 27 days” value ([7]; DIO rats, Compound A1 alone 24 mcg/kg/day) was ~4%. The “decrease in body weight over 27 days” value ([7]; DIO rats, Compound A1 alone, highest infusion rate (50 mcg/kg/day)) was 16.8%, the clearance ([8]; read-out: CL (IV/SubQ)) was 11.5 mL/min/kg and the half-life ([8]; read-out: T ½ (converted)) was 49.8 min. For the same molecule, the bioavailability [9] was 74%, the “clearance compared with exenatide and glucagon” value ([10]; FIG. 7) was “less than that of exenatide and glucagon” and the mode of clearance ([10]; FIG. 7, Table 5 values close to GFR) was “cleared from plasma via glomerular filtration”. The clearance ([10]; Rat PK Cl, Table 6, unit inferred) was 11.5 mL/min/kg, the clearance ([10]; iv, CL mL/min/kg, Table 5, intravenous infusion rate 10 mcg/kg/hr) was 10.6 mL/min/kg and the clearance [11] was 11.5 mL/min/kg. The “weight loss compared to vehicle control after 13 days” value ([12]; 0.01 mg/kg/day) was 5.6%, the “weight loss compared to vehicle control after 13 days” value ([12]; 0.03 mg/kg/day) was 3.5% and the “weight loss compared to vehicle control after 13 days” value ([12]; 0.1 mg/kg/day) was 10%. For the same molecule, the “weight loss compared to vehicle control after 13 days” value ([12]; 0.3 mg/kg/day) was 22.6%, the “ED50 of weight loss” value ([12]; 13 days infusion, fits sharing vehicle response and common maximum (FIG. 9)) was 51 µg/kg/day and the “ED50 of weight loss” value ([12]; 13 days sc minipump, 4-parameter sigmoid fit of each agent (FIG. 8; Table 6 prints no unit)) was 65.7 µg/kg/day. For the same molecule, the “% Weight loss Single” value ([12]; Table 6, rat in vivo) was 26%, the “in vivo potency compared with exenatide” value ([12]; administered alone) was “almost as potent in vivo as exenatide” and the “maximal weight loss relative to exenatide” value ([12]; greater, administered alone) was 2.3 fold. The “common maximal weight loss response” value ([12]; over 13 days, fits constrained to share it (FIG. 9)) was 27.2%.
